This note sets out measurements from patent US20240376165A1, “COMPOSITION COMPRISING VGLL1 PEPTIDE FOR TREATMENT OF CANCER” (ONECUREGEN CO., LTD., priority 2020, published 2024).

d = 2'-deoxy (DNA); r = 2'-OH (RNA)

Data set [1] has as its system MMP9. Nature of the data set: MMP9 mRNA expression after TGF-β treatment, RT-PCR. The format is cell-based, human. Particulars: NUGC3, 20 nM siRNA, TGF-β 18 hours, compared to control (siSC), FIG. 4. How it is done: In order to determine whether VGLL1 and TEAD4 were involved in MMP9 mRNA expression in NUGC3 human stomach cancer cells, MMP9 mRNA expression was examined by RT-PCR after TGF-β treatment.
Specifically, the stomach cancer cell line NUGC3 was cultured in a 6-well plate. The next day, 20 nM siSC, siVGLL1, siTEAD4, and siYAP were mixed with Lipofectamine 2000, and the cell line was treated with the mixture. The next day, after treatment with TGF-β for 18 hours, mRNA was extracted from the cells and complementary DNA was synthesized, followed by RT-PCR.

The next data set relates to MMP9 promoter. Nature of the data set: MMP9 promoter luciferase activity after TGF-β treatment. The format is cell-based, human. As to conditions: NUGC3, 20 nM siRNA, TGF-β 18 hours, compared to control (siSC), FIG. 3. How it is done:
In order to determine whether VGLL1 and TEAD4 were involved in MMP9 promoter activity in NUGC3 human stomach cancer cell line, the MMP9 promoter luciferase activity was investigated after TGF-β treatment.
Specifically, the stomach cancer cell NUGC3 was cultured in a 48-well plate at a concentration of 2× 10^4 cells/well. The next day, the MMP9 gene-inserted pGL4.17-luciferase vector was transfected into cells using Lipofectamine 2000. After 24 hours, 20 nM siSC (SEQ ID NO: 23: 5′-CCUACGCCACCAAUUUCGUdTdT-3′) siVGLL1 (SEQ ID NO 24: 5′-[…]dTdT-3′), siTEAD4 (SEQ ID NO 25: 5′-GACACUACUCUUACCGCAUdTdT-3′), and siYAP (SEQ ID NO 26: 5′-CCACCA AGCUAGAUAAAGAAAdTdT-3′) were mixed with Lipofectamine 2000, and the cells were treated with the mixture. The next day, the cells were treated with TGF-β for 18 hours. Thereafter, the cells were disrupted using a passive lysis buffer. Then, after centrifuging cells, a supernatant was obtained. […] At this time, the degree of luminescence of the cells was checked using Victor X Light.

The test system of data set [2] is stomach cancer cell line NUGC3. Put plainly: Cell proliferation after siRNA, Sulforhodamine B staining. It counts as cell-based, human. As to conditions: NUGC3, 20 nM siRNA, 48 hours, FIG. 2B. How it is done: In addition, in order to confirm the cell proliferation ability of MMP9, the stomach cancer cell line NUGC3 was cultured in a 96-well plate. The next day, cells were treated with the mixture of Lipofectamine 2000 and 20 nM siSC or siMMP9. After 48 hours, cells were fixed using 1% formalin solution. Thereafter, the cells were stained with 0.4% Sulforhodamine B solution for 1 hour, washed with acetic acid, and dried. Then, the cells were dissolved in a 10 mM Tris solution, and absorbance was measured at 540 nm using an ELISA plate reader (FIG. 2B).
On the technique in general: The SRB assay estimates cell density from bound dye.

For data set [3], the system named is MMP9. Nature of the data set: MMP9 knockdown by siRNA, RT-PCR. The format is cell-based, human. As to conditions: NUGC3, 20 nM siRNA, 48 hours, FIG. 2A. How it is done:
Specifically, the stomach cancer cells line NUGC3 was cultured in a 6-well plate overnight, and then treated with the mixture of Lipofectamine 2000 and 20 nM siSC or siMMP9 (SEQ ID NO: 22) and. After 48 hours, mRNA was extracted from the cells and complementary DNA was synthesized, followed by RT-PCR using the MMP9 primer (FIG. 2A).

Data set [4] concerns stomach cancer cell line NUGC3. Nature of the data set: Matrigel cell invasion after siRNA. It counts as cell-based, human. Particulars: NUGC3, siRNA knockdown cells, Matrigel insert, 48 hours, FIG. 2C. The method, then:
(§1) Next, in order to confirm the cell invasive ability of MMP9, a cell culture insert was fixed in a 24-well plate. Matrigel was diluted 20-fold, and 100 μl of diluent was added. The reaction was carried out at 37° C. for 1 hour or longer. 700 μl of medium containing 10% serum was added to a 24-well plate under the insert. MMP knockdown cells with the above siRNA were added to the insert according to 300 μl of serum-free medium to a concentration of 5×10^5. After 48 hours, the insert was removed and cells were fixed in 10% formalin solution. Cells remaining inside the insert were removed with a cotton swab and washed with water. Cells were stained with 0.4% Sulforhodamine B solution for 1 hour, washed with acetic acid, and dried. Then, a photograph was taken with an optical microscope, the membrane on the insert was cut, and Sulforhodamine B in stained cells was dissolved in 10 mM Tris solution, and absorbance was measured at 540 nm using an ELISA plate reader (FIG. 2C).

Data set [5] concerns MMP9. Put plainly: MMP9 expression by TGF-β treatment, RT-PCR. It counts as cell-based, human. Particulars: NUGC3, RT-PCR, after 6 hours of TGF-β treatment, FIG. 1. How it is done: In order to confirm the expression change of MMP9 according to TGF-β treatment in stomach cancer cell lines, the human stomach cancer cell line NUGC3 was treated with TGF-β at each time period, then mRNA was extracted from the cells, and complementary DNA was synthesized. Then RT-PCR was performed using Matrix metalloproteinase 9 (MMP9) primers (Table 4).

The subject of data set [6] is stomach cancer cell line NUGC3. Put plainly: Cancer cell proliferation, real-time cell analysis (IncuCyte Zoom). The format is cell-based, human. As to conditions: FIG. 9. The method, then:
Specifically, the stomach cancer cell line NUGC3 was cultured in a 96-well plate. The next day, the cells were treated with the peptide fragment. The cell proliferation was analyzed using a real-time cell analysis system (product name: IncuCyte Zoom).

Data set [7] concerns stomach cancer cell line NUGC3. Put plainly: Cancer cell proliferation with peptide variants, real-time cell analysis (Incucyte). It counts as cell-based, human. Particulars: NUGC3, 60 μM peptide, FIG. 11. How it is done: The stomach cancer cell line NUGC3 was cultured in a 96-well plate, and the next day, the cells were treated with 60 μM peptide. The cell proliferation was analyzed using a real-time cell analysis system (product name: Incucyte).
FIG. 11A is a graph of real-time cell proliferation, and FIG. 11B is a graph showing cell proliferation after 4 days based on 100% control peptide.

The test system of data set [8] is MMP9. Put plainly: MMP9 protein expression induced by TGF-β, western blot, peptide treatment. It counts as cell-based, human. Particulars: NUGC3, TGF-β and peptide for 18 hours, FIG. 8. The method, then:
To evaluate whether the peptide fragment that interferes the binding between VGLL1 and TEAD4 can inhibit MMP9 expression in human stomach cancer cells, peptides shown in Table 6 were prepared to examine their effects on MMP9 expression.
Experiments were performed using the synthetic peptide fragments. The stomach cancer NUGC3 cells were cultured in a 6-well plate. The next day, cells were cultured in serum-free cell culture for 24 hours. TGF-β and a control peptide fragment (SEQ ID NO: 12), a peptide fragment containing serine at position 84 of VGLL1 (SEQ ID NO: 27), and a mutant peptide fragment containing alanine at position 84 of VGLL1 (SEQ ID NO: 28) were treated into cells for 18 hours. Proteins were extracted from the cells using a Ripa buffer and were separated by electrophoresis. Thereafter, protein expression of genes was confirmed by using an antibody on the polyvinylidene fluoride membrane.
Background: In western blotting, separated proteins are transferred to a membrane and probed.

Data set [9] has as its system stomach cancer cell line NUGC3. Put plainly: Cancer cell invasion with peptide fragment. The format is cell-based, human. As to conditions: NUGC3, insert, 48 hours, FIG. 10. The method, then:
as §1
A method similar to Example 1-2 was performed for stomach cancer cell invasion experiment by the VGLL1 peptide fragment.
The stomach cancer cell line NUGC3 was placed in an insert together with the peptide fragment. After 48 hours of cell culture, the insert was fixed in a 10% formalin solution, and the downwardly migrated cells were confirmed by staining with 0.4% Sulforhodamine B solution.

Data set [10] has as its target T1, GFP-TEAD4, expressed from the GFP-TEAD4 vector (UniProt Q15561 1-434).
T1 construct: Detected with GFP antibody in the HA immunoprecipitate; also called transcription factor TEAD4; not shown: GFP tag
Put plainly: co-immunoprecipitation with HA antibody agarose, western blot with GFP antibody. How it is done: Specifically, the GFP-TEAD4 vector and pcDNA3-HA (EV), pcDNA3-HA-VGLL1 (WT), pcDNA3-HA-VGLL1-S50A (S50A mutation), pcDNA3-HA-VGLL1-S84A (S84A mutation), and pcDNA3-HA-VGLL1-S124A (S124A mutation) were mixed with Turbofect. The mixture was transformed to the cell lines cultured for 24 hours. After 48 hours, the protein was extracted from the cells using a Ripa buffer. The extracted protein was subjected to immunoprecipitation using agarose bound with HA antibody and separated by electrophoresis. Thereafter, western blot analysis was performed using an antibody on the polyvinylidene fluoride membrane.

T1 sequence (Q15561 whole entry): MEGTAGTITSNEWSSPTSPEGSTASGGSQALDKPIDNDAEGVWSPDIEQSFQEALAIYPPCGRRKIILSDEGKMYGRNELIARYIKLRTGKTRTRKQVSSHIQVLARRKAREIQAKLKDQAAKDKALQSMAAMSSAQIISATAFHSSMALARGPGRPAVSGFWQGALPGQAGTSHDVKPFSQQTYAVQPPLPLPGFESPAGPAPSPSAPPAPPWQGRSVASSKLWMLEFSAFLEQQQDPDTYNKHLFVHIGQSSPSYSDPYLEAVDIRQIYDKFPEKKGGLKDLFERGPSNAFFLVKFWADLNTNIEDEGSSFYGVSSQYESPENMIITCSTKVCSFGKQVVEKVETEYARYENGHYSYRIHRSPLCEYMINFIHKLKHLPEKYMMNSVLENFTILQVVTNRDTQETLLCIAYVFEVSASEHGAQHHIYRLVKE

In the case of “5′-AGCCUAUAAAGACGGAAUGGAAUdTdT-3′ (sense AGCCUAUAAAGACGGAAUGGAAUTT; sugars from the 5' end r23 d2, backbone not given here) [siVGLL1, siRNA against VGLL1]”, the “MMP9 mRNA expression increased by TGF-β” value in the data set on MMP9 [1] was “decreased”. The “MMP9 promoter activity increased by TGF-β” value in the data set with MMP9 promoter is listed as “decreased”.
For the molecule “5′-CCACAACAUCACCUAUUGGAUdTdT-3′ [siMMP9]”, the cell viability entry in data set [2] is listed as “greatly reduced cell viability”. In the data set with MMP9 [3], the “expression of MMP9” value was “reduced expression of MMP9”. In addition, the cell invasiveness entry in [4] is reported as “greatly reduced cell invasiveness”.
In the case of 5′-GACACUACUCUUACCGCAUdTdT-3′ [siTEAD4], the “MMP9 mRNA expression increased by TGF-β” value with MMP9 [1] is recorded as “decreased”. Also, the “MMP9 promoter activity increased by TGF-β” value in the data set on MMP9 promoter was “decreased”.
Transforming growth factor-β [TGF-β]: in the data set with MMP9 [5], the “expression of MMP9” value is “increased”.
Regarding “YGRKKRRQRRR (HIV-1 Tat) [Control peptide]”, the “inhibition of cancer cell proliferation” value in [6] is on record as “did not have any effect”.
For the molecule “YGRKKRRQRRR-PNQWRYSSAWTKPQP (YGRKKRRQRRRPNQWRYSSAWTKPQP; HIV TAT sequence linked; Tat-VGLL1(P85A)) [VGLL1 P85A]”, in [7], the “inhibition of cancer cell proliferation” value was “excellent effect in inhibiting cancer cell proliferation”.
The same measure, in the same setting: the entry for “YGRKKRRQRRR-PNQWRYSSPWAKPQP (YGRKKRRQRRRPNQWRYSSPWAKPQP; HIV TAT sequence linked; Tat-VGLL1(T87A)) [VGLL1 T87A]” is “excellent effect in inhibiting cancer cell proliferation”; for “YGRKKRRQRRR-YSSPWTK (YGRKKRRQRRRYSSPWTK; HIV TAT sequence linked; Tat-VGLL1(S84-S)) [VGLL1 S84-S]” it is “excellent effect in inhibiting cancer cell proliferation”.
For “YGRKKRRQRRRPNQWRYSAPWTKPQP (HIV TAT domain linked; Tat-VGLL1(S84A)) [VGLL1 (S84A), reference compound]”, in data set [6], the “inhibition of cancer cell proliferation” value was “did not have any effect”. Further, the “increased MMP9 expression by TGF-β” value in the data set with MMP9 [8] was “not affected”. Besides, the “inhibition of cancer cell invasion” value in [9] was “did not exhibit such an effect”.

B1: HA-VGLL1-S84A, expressed from pcDNA3-HA-VGLL1-S84A (other)
chain: MEEMKKTAIRLPKGKQKPIKTEWNSRCVLFTYFQGDISSVVDEHFSRALSNIKSPQELTPSSQSEGVMLKNDDSMSPNQWRYSAPWTKPQPEVPVTNRAANCNLHVPGPMAVNQFSPSLARRASVRPGELWHFSSLAGTSSLEPGYSHPFPARHLVPEPQPDGKREPLLSLLQQDRCLARPQESAARENGNPGQIAGSTGLLFNLPPGSVHYKKLYVSRGSASTSLPNETLSELETPGKYSLTPPNHWGHPHRYLQHL
notes: Serine 84 of VGLL1 replaced with alanine by site-directed mutagenesis in the pcDNA3-HA-VGLL1 vector; also called S84A mutation; not shown: HA tag from the pcDNA3-HA vector
B1: the binding result in [10] is “no binding”.
